# Experimental data reported in article PMC11435058, “Synthesis of New Thiazole-Privileged Chalcones as Tubulin Polymerization Inhibitors with Potential Anticancer Activities” (Pharmaceuticals, 2024).
# Like-named read-outs stand apart in the source and are kept apart here.
# Legend:
# RPMI-8226 = assay: NCI-60 anticancer screen (SRB; single dose and five doses); conditions: Homo sapiens
# NCI-H522 = assay: as above; conditions: Homo sapiens
# MCF7 = assay: as above; conditions: Homo sapiens
# BT-549 = assay: as above; conditions: Homo sapiens
# HS 578T = assay: as above; conditions: Homo sapiens
# RXF 393 = assay: as above; conditions: Homo sapiens
# NCI-H322M = assay: as above; conditions: Homo sapiens
# SK-MEL-5 = assay: as above; conditions: Homo sapiens
# PC-3 = assay: as above; conditions: Homo sapiens
# MOLT-4 = assay: as above; conditions: Homo sapiens
# NCI-H226 = assay: as above; conditions: Homo sapiens
# SF-268 = assay: as above; conditions: Homo sapiens
# SN12C = assay: as above; conditions: Homo sapiens
# SF-539 = assay: as above; conditions: Homo sapiens
# MDA-MB-231/ATCC = assay: as above; conditions: Homo sapiens
# MALME-3M = assay: as above; conditions: Homo sapiens
# ACHN = assay: as above; conditions: Homo sapiens
# EKVX = assay: as above; conditions: Homo sapiens
# [1] = system: 60 human tumor cell lines panel; assay: NCI-60 anticancer screen, whole panel (means and ranges over the cell lines); assay type: cell-based; conditions: for activity at 10 µM: Homo sapiens, 48 h, dose of 10 μM
# SR = assay: NCI-60 anticancer screen (SRB; single dose and five doses); conditions: Homo sapiens
# M14 = assay: as above; conditions: Homo sapiens
# NCI-H23 = assay: as above; conditions: Homo sapiens
# SNB-19 = assay: cells; conditions: Homo sapiens
# NCI/ADR-RES = assay: NCI-60 anticancer screen (SRB; single dose and five doses); conditions: Homo sapiens
# DU-145 = assay: as above; conditions: Homo sapiens
# COLO 205 = assay: as above; conditions: Homo sapiens
# A498 = assay: as above; conditions: Homo sapiens
# K-562 = assay: as above; conditions: Homo sapiens
# CCRF-CEM = assay: NCI-60 anticancer screen (SRB; single dose 10 μM and five doses); conditions: Homo sapiens
# [2] = 48 h, read-out: Growth Percentage
# [3] = five doses, mean graph midpoint over all cell lines
smiles,measurement,setting,value
"Cc1[nH]c(=S)sc1C(=O)/C=C/c1ccc(Br)cc1 [2g, (E)-3-(4-Bromophenyl)-1-(4-Methyl-2-Thioxo-2,3-Dihydrothiazol-5-yl)Prop-2-En-1-One]",GI50,RPMI-8226; RPMI-8226,2.29 µM
same,activity at 10 µM,"RPMI-8226; RPMI-8226, 48 h, read-out: Growth Percentage",1.4%
same,CC50,"RPMI-8226; RPMI-8226, read-out: LC50",> 100 µM
same,IC (TGI),"RPMI-8226; RPMI-8226, read-out: TGI",> 100 µM
same,GI50,NCI-H522; NCI-H522,3.37 µM
same,activity at 10 µM,"NCI-H522; NCI-H522, 48 h, read-out: Growth Percentage",21.1%
same,CC50,"NCI-H522; NCI-H522, read-out: LC50",41.2 µM
same,IC (TGI),"NCI-H522; NCI-H522, read-out: TGI",14.3 µM
same,GI50,MCF7; MCF7,2.57 µM
same,activity at 10 µM,"MCF7; MCF7, 48 h, read-out: Growth Percentage",10.5%
same,CC50,"MCF7; MCF7, read-out: LC50",38.7 µM
same,IC (TGI),"MCF7; MCF7, read-out: TGI",10.6 µM
same,GI50,BT-549; BT-549,2.6 µM
same,activity at 10 µM,"BT-549; BT-549, 48 h, read-out: Growth Percentage",19.5%
same,IC (TGI),"BT-549; BT-549, read-out: TGI",7.28 µM
same,GI50,HS 578T,10.4 µM
same,activity at 10 µM,HS 578T; [2],74.6%
same,CC50,HS 578T; read-out: LC50,> 100 µM
same,IC (TGI),HS 578T; read-out: TGI,33 µM
same,GI50,RXF 393; RXF 393,2.58 µM
same,activity at 10 µM,"RXF 393; RXF 393, 48 h, read-out: Growth Percentage",16%
same,CC50,"RXF 393; RXF 393, read-out: LC50",33 µM
same,IC (TGI),"RXF 393; RXF 393, read-out: TGI",9.43 µM
same,GI50,NCI-H322M,3.76 µM
same,activity at 10 µM,NCI-H322M; [2],44.1%
same,CC50,NCI-H322M; read-out: LC50,41.3 µM
same,IC (TGI),NCI-H322M; read-out: TGI,15.2 µM
same,GI50,SK-MEL-5; SK-MEL-5,5.82 µM
same,activity at 10 µM,"SK-MEL-5; SK-MEL-5, 48 h, read-out: Growth Percentage",48.8%
same,CC50,"SK-MEL-5; SK-MEL-5, read-out: LC50",43 µM
same,IC (TGI),"SK-MEL-5; SK-MEL-5, read-out: TGI",18.4 µM
same,GI50,PC-3; PC-3,4.68 µM
same,activity at 10 µM,"PC-3; PC-3, 48 h, read-out: Growth Percentage",48.8%
same,CC50,"PC-3; PC-3, read-out: LC50",> 100 µM
same,IC (TGI),"PC-3; PC-3, read-out: TGI",26 µM
same,GI50,MOLT-4; MOLT-4,3.57 µM
same,activity at 10 µM,"MOLT-4; MOLT-4, 48 h, read-out: Growth Percentage",30.2%
same,CC50,"MOLT-4; MOLT-4, read-out: LC50",> 100 µM
same,IC (TGI),"MOLT-4; MOLT-4, read-out: TGI",36.6 µM
same,GI50,NCI-H226; NCI-H226,4.13 µM
same,activity at 10 µM,"NCI-H226; NCI-H226, 48 h, read-out: Growth Percentage",54.5%
same,CC50,"NCI-H226; NCI-H226, read-out: LC50",> 100 µM
same,IC (TGI),"NCI-H226; NCI-H226, read-out: TGI",25.4 µM
same,GI50,SF-268; SF-268,13.5 µM
same,activity at 10 µM,"SF-268; SF-268, 48 h, read-out: Growth Percentage",46.1%
same,CC50,"SF-268; SF-268, read-out: LC50",64.2 µM
same,IC (TGI),"SF-268; SF-268, read-out: TGI",29.5 µM
same,GI50,SN12C,3.15 µM
same,activity at 10 µM,SN12C; [2],19.2%
same,CC50,SN12C; read-out: LC50,36.8 µM
same,IC (TGI),SN12C; read-out: TGI,13.1 µM
same,GI50,SF-539; SF-539,2 µM
same,activity at 10 µM,"SF-539; SF-539, 48 h, read-out: Growth Percentage",-25.3%
same,IC (TGI),"SF-539; SF-539, read-out: TGI",4.67 µM
same,GI50,MDA-MB-231/ATCC; MDA-MB-231,10.9 µM
same,activity at 10 µM,"MDA-MB-231/ATCC; MDA-MB-231, 48 h, read-out: Growth Percentage",9.49%
same,CC50,"MDA-MB-231/ATCC; MDA-MB-231, read-out: LC50",50.9 µM
same,IC (TGI),"MDA-MB-231/ATCC; MDA-MB-231, read-out: TGI",23.5 µM
same,GI50,MALME-3M,12.5 µM
same,activity at 10 µM,MALME-3M; [2],72.9%
same,CC50,MALME-3M; read-out: LC50,67.2 µM
same,IC (TGI),MALME-3M; read-out: TGI,29 µM
same,GI50,ACHN,7.67 µM
same,activity at 10 µM,ACHN; [2],55%
same,CC50,ACHN; read-out: LC50,45.4 µM
same,IC (TGI),ACHN; read-out: TGI,20.3 µM
same,GI50,EKVX,10.6 µM
same,activity at 10 µM,EKVX; [2],62.9%
same,CC50,EKVX; read-out: LC50,51 µM
same,IC (TGI),EKVX; read-out: TGI,23.3 µM
same,activity at 10 µM,"[1]; mean over the tested cell lines, read-out: Mean growth percentage",34.2%
same,activity at 10 µM,"[1]; range over the cell lines, read-out: growth percentages against most of the tested cells (lowest to highest)",-34.1 to 109%
same,Log10GI50 _MID,[1]; [3],-5.31 Molar
same,Log10LC50 _MID,[1]; [3],-4.3 Molar
same,Log10TGI _MID,[1]; [3],-4.75 Molar
same,GI50,SR,2.83 µM
same,activity at 10 µM,SR; [2],8.46%
same,CC50,SR; read-out: LC50,> 100 µM
same,IC (TGI),SR; read-out: TGI,23.2 µM
same,GI50,M14; M14,9.02 µM
same,activity at 10 µM,"M14; M14, 48 h, read-out: Growth Percentage",74.5%
same,IC (TGI),"M14; M14, read-out: TGI",22.9 µM
same,GI50,NCI-H23; NCI-H23,8.23 µM
same,activity at 10 µM,"NCI-H23; NCI-H23, 48 h, read-out: Growth Percentage",65%
same,CC50,"NCI-H23; NCI-H23, read-out: LC50",48 µM
same,IC (TGI),"NCI-H23; NCI-H23, read-out: TGI",21.3 µM
same,GI50,SNB-19; SNB-19,3.47 µM
same,activity at 10 µM,"SNB-19; SNB-19, 48 h, read-out: Growth Percentage",32.7%
same,CC50,"SNB-19; SNB-19, read-out: LC50",37.7 µM
same,IC (TGI),"SNB-19; SNB-19, read-out: TGI",13.4 µM
same,GI50,NCI/ADR-RES,6.04 µM
same,activity at 10 µM,NCI/ADR-RES; [2],-13.9%
same,CC50,NCI/ADR-RES; read-out: LC50,73.4 µM
same,IC (TGI),NCI/ADR-RES; read-out: TGI,23.4 µM
same,GI50,DU-145; DU-145,3.52 µM
same,activity at 10 µM,"DU-145; DU-145, 48 h, read-out: Growth Percentage",23.9%
same,CC50,"DU-145; DU-145, read-out: LC50",35.3 µM
same,IC (TGI),"DU-145; DU-145, read-out: TGI",12 µM
same,GI50,COLO 205; COLO 205,13.9 µM
same,activity at 10 µM,"COLO 205; COLO 205, 48 h, read-out: Growth Percentage",90%
same,CC50,"COLO 205; COLO 205, read-out: LC50",80 µM
same,IC (TGI),"COLO 205; COLO 205, read-out: TGI",33.3 µM
same,GI50,A498; A498,13.5 µM
same,activity at 10 µM,"A498; A498, 48 h, read-out: Growth Percentage, A498, dose of 10 μM",109%
same,CC50,"A498; A498, read-out: LC50",51.8 µM
same,IC (TGI),"A498; A498, read-out: TGI",26.5 µM
same,GI50,K-562; K562,2.73 µM
same,activity at 10 µM,"K-562; K562, 48 h, read-out: Growth Percentage",13.6%
same,CC50,"K-562; K562, read-out: LC50",> 100 µM
same,IC (TGI),"K-562; K562, read-out: TGI",> 100 µM
same,GI50,CCRF-CEM,3.06 µM
same,activity at 10 µM,CCRF-CEM; [2],-11%
same,IC (TGI),CCRF-CEM; read-out: TGI,61.5 µM
